Laboratory results reported in the supplement of paper PMC10307832.

What was measured:
Assay in all cases: relative viability (nuclei count vs DMSO), 5 days (fraction); higher = more cells survive
Ibrutinib = compound: C=CC(=O)N1CCC[C@@H](n2nc(-c3ccc(Oc4ccccc4)cc3)c3c(N)ncnc32)C1 [Ibrutinib]
Outline: (§1)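 Lung cancer cell lines were seeded into 1536-well plates, kept overnight at 37 °C and pinned with five library-drug doses (not always all listed) spaced by √10. After 5 days, nuclei were Hoechst-stained, imaged at 4× and counted with MetaXpress. Viability is treated-well nuclei over vehicle-well nuclei, taken as a median across plates. Plates needed control CV below 25% and at least one doubling.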

BMX-IN-1 = compound: C=CC(=O)Nc1cc(-n2c(=O)ccc3cnc4ccc(-c5ccc(NS(C)(=O)=O)cc5)cc4c32)ccc1C [BMX-IN-1]
Outline: as §1

PAC-1 = compound: C=CCc1cccc(/C=N/NC(=O)CN2CCN(Cc3ccccc3)CC2)c1O [PAC-1]
Outline: as §1

BMX-IN-1 + Crizotinib = compound: C=CC(=O)Nc1cc(-n2c(=O)ccc3cnc4ccc(-c5ccc(NS(C)(=O)=O)cc5)cc4c32)ccc1C [BMX-IN-1] + C[C@@H](Oc1cc(-c2cnn(C3CCNCC3)c2)cnc1N)c1c(Cl)ccc(F)c1Cl [Crizotinib] (partner 1 µM)
Outline: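 Lung cancer cell lines were pin-tool dosed in 1536-well plates on the day after seeding, with either a lone drug or a fixed anchor-drug dose plus five library-drug doses (not always all listed) in √10 steps. Nuclei were counted on 4× images after 5 days. Relative viability is the ratio of treated-well to vehicle-well nuclei counts, with each value a median of duplicate plates.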

Cell Line | relative viability (Ibrutinib; 0.005 µM) | relative viability (Ibrutinib; 0.05 µM) | relative viability (Ibrutinib; 0.1581 µM) | relative viability (Ibrutinib; 0.5 µM) | relative viability (BMX-IN-1; 0.02 µM) | relative viability (BMX-IN-1; 0.2 µM) | relative viability (BMX-IN-1; 0.6325 µM) | relative viability (BMX-IN-1; 2 µM) | relative viability (PAC-1; 0.02 µM) | relative viability (PAC-1; 0.06325 µM) | relative viability (PAC-1; 0.2 µM) | relative viability (PAC-1; 2 µM) | relative viability (BMX-IN-1 + Crizotinib; first compound 0.02 µM) | relative viability (BMX-IN-1 + Crizotinib; first compound 0.2 µM) | relative viability (BMX-IN-1 + Crizotinib; first compound 0.6325 µM) | relative viability (BMX-IN-1 + Crizotinib; first compound 2 µM) | relative viability (Ibrutinib; 0.01581 µM)
NCI-H2405 | 0.924 | 0.832 | 0.713 | 0.973 | 0.982 | 1.01 | 1.09 | 1.04 | 1.04 | 1 | 1.01 | 1.09 | 0.939 | 0.892 | 0.903 | 0.886 | 
EBC-1 | 1.09 | 0.922 | 0.97 | 1.06 | 1.06 | 0.952 | 1.14 | 0.964 | 1.04 | 0.932 | 0.949 | 1 | 0.195 | 0.202 | 0.162 | 0.197 | 0.947
NCI-H1734 | 0.849 | 0.952 | 1.03 | 0.999 | 1.06 | 1.06 | 1.11 | 1.02 | 0.936 | 1.01 | 0.942 | 1.02 | 0.797 | 0.807 | 0.794 | 0.703 | 0.922
NCI-H2087 | 1.13 | 1.19 |  | 0.99 | 1.03 | 1.14 | 1.14 | 1.15 | 0.872 | 1.06 | 0.929 | 1.04 | 0.902 | 1.02 | 1.01 | 1.03 | 0.931
NCI-H1563 | 0.922 | 1 | 0.977 | 0.861 | 0.955 | 0.943 | 1.04 | 0.964 | 0.953 | 1.03 | 1.04 | 0.94 | 0.794 | 0.887 | 0.86 | 0.761 | 0.893
SW 900 | 0.578 | 0.873 | 0.708 | 0.845 | 0.971 | 0.886 | 0.911 | 1.09 | 0.766 | 1.02 | 0.815 | 0.792 |  |  |  |  | 0.693
A549 | 0.884 | 1 | 0.988 | 0.935 | 1.17 | 1.17 | 1.05 | 1.07 | 0.994 | 0.962 | 0.943 | 0.96 | 0.986 | 1.22 | 0.945 | 0.738 | 0.891
NCI-H1793 |  | 0.732 | 0.631 | 0.538 | 1.13 | 0.995 | 1.13 | 1.05 | 0.847 | 0.934 | 0.872 | 1.01 |  |  |  |  | 0.831
EKVX | 0.955 | 0.901 | 0.849 | 0.584 | 1.02 | 0.944 | 1.02 | 1.01 | 1.02 | 0.977 | 0.934 | 0.98 | 1.18 | 1.29 | 0.882 | 1.01 | 0.95
NCI-H2126 | 0.68 | 0.972 | 0.9 | 0.887 | 1.09 | 1.05 | 1.08 | 1.02 | 0.938 | 0.948 | 1.02 | 1.06 | 1.2 | 1.06 | 1.15 | 1.1 | 0.969
NCI-H1993 | 0.617 |  | 0.733 | 0.61 | 1.01 | 1.09 | 0.973 | 0.882 | 0.911 | 0.986 | 0.891 | 0.963 | 0.912 | 0.873 |  | 0.835 | 0.822
EPLC-272H | 0.681 | 0.677 | 0.686 | 0.664 | 1.01 | 0.954 | 0.874 | 0.952 | 0.877 | 1.04 | 0.941 | 0.929 | 1.04 | 0.968 | 0.96 | 0.96 | 0.859
LU99A | 0.992 | 0.892 | 1.06 | 0.939 | 0.986 | 0.95 | 1.06 | 0.962 | 0.908 | 0.977 | 0.892 | 0.954 | 0.639 | 0.567 | 0.547 | 0.579 | 0.884
NCI-H1299 | 1.02 | 1.05 | 1.01 | 1.05 | 1.09 | 1.08 | 1.07 | 1.06 | 1.03 | 0.979 | 1 | 1.01 | 0.798 | 1.03 | 0.97 | 1.01 | 1.01
HCC-78 | 0.904 | 0.916 | 0.748 | 0.691 | 1.01 | 1.08 | 1.02 | 0.952 | 1.01 | 0.892 | 0.974 | 1.11 | 0.379 | 0.347 | 0.335 | 0.405 | 0.97
HCC-15 | 1.12 | 1.04 | 0.857 | 1 | 1.11 | 1.1 | 1.11 | 1.13 | 1.09 | 1.08 | 0.969 | 1.08 | 0.991 | 0.945 | 0.953 | 0.762 | 1.01
201T | 0.979 | 0.964 | 0.876 | 0.955 | 1.11 | 0.996 | 1.05 | 1.03 | 0.959 | 1.02 | 1.01 | 0.981 | 1.03 | 1.05 | 1.09 | 1.05 | 0.992
LCLC-103H | 0.966 | 0.965 | 0.882 | 0.946 | 1.09 | 1.1 | 1.07 | 1.1 | 1 | 0.975 | 1.02 | 1.01 | 1.19 | 1.05 | 1.07 | 1.07 | 0.999
RERF-LC-KJ | 1.03 | 0.942 | 0.989 | 0.849 | 1.14 | 1.04 | 1.03 | 1.03 | 1.08 | 1 | 0.947 | 0.942 | 0.813 | 1.09 | 0.865 | 0.807 | 0.85
